One molecule from PMC7830863, “Characterization of Cross-Linked Enzyme Aggregates of the Y509E Mutant of a Glycoside Hydrolase Family 52 β-xylosidase from G. stearothermophilus” (Molecules, 2021) can be followed below.

The target in this experiment is T1, XynB2 (Geobacillus stearothermophilus, UniProt Q09LZ0, Y509E).
T1 construct: recombinant in E. coli C43 from plasmid pJAVI100 (template pJAVI91); semi-purified by heat treatment (45 °C, 30 min) and dialysis; all rows Y509E
The experiment is described as follows: p-nitrophenol release at […] nm, hyperbolic fit. The class given is biochemical. The settings on record: free semi-purified (heat-treated extract) enzyme; 100 mM citrate phosphate-glycine buffer, pH 6.5, 50 °C.

What is called Km is the concentration of substrate that gives half-maximal velocity.

T1 sequence (Q09LZ0 entry or part of it Y509E): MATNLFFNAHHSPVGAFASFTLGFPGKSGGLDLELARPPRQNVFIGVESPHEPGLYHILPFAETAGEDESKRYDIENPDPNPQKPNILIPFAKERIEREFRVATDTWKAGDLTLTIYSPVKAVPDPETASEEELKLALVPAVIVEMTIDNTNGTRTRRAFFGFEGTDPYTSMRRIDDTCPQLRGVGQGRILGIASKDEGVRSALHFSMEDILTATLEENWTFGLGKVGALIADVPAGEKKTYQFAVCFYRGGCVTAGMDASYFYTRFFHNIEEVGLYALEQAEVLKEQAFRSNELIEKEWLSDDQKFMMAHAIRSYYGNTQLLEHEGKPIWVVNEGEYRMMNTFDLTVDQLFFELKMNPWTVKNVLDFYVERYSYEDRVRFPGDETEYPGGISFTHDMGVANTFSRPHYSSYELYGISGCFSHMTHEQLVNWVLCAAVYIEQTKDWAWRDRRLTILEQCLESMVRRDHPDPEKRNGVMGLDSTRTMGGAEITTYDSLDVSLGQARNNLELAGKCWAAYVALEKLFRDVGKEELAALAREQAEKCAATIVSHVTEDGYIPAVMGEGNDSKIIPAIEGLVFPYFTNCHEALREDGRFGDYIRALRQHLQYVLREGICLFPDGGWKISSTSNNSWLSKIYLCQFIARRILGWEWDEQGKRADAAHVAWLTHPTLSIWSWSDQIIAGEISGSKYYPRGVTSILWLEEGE

Take `O=[N+]([O-])c1ccc(O[C@@H]2OC[C@@H](O)[C@H](O)[C@H]2O)cc1` [p-nitrophenyl-β-d-xylopyranoside]: the Km was found to be 900 ± 100 µM.
